Drawing on ChEMBL document CHEMBL1782005, “Turnagainolides A and B, cyclic depsipeptides produced in culture by a Bacillus sp.: isolation, structure elucidation, and synthesis” (J Nat Prod, 2011), this text covers Activity for three compounds.

This experiment addresses T1, Phosphatidylinositol 3,4,5-trisphosphate 5-phosphatase 1 (Homo sapiens) (UniProt Q92835).
T1 sequence (whole entry): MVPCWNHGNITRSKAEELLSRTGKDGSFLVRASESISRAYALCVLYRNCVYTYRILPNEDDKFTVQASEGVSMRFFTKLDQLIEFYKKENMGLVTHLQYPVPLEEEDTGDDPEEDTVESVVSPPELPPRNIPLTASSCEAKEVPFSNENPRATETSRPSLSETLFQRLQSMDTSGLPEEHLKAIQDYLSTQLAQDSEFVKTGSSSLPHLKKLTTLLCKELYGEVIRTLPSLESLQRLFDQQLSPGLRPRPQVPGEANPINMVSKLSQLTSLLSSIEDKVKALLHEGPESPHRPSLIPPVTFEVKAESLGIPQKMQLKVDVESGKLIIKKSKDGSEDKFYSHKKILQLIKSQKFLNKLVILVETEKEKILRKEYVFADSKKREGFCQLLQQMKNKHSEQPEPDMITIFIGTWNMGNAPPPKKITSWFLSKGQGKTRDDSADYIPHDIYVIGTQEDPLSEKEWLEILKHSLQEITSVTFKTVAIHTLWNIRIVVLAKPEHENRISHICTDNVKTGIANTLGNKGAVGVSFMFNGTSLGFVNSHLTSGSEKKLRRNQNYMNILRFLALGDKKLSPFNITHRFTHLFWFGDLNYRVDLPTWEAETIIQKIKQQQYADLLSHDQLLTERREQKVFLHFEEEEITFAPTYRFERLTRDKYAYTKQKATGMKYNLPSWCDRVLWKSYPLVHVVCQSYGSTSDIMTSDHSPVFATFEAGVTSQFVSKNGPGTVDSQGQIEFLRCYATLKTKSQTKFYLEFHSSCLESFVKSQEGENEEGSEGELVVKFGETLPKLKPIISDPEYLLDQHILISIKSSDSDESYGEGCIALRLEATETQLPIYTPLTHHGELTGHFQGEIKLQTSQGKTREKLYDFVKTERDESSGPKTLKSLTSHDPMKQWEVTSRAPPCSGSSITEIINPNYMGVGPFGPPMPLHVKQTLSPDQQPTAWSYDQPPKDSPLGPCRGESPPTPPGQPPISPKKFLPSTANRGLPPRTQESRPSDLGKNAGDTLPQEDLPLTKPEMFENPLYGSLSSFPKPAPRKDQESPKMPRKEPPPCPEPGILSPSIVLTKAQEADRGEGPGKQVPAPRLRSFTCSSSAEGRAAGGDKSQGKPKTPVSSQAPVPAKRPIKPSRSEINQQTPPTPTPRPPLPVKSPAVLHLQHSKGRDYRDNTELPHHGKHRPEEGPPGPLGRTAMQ
As to the kind of experiment: Activation of SHIP1 using IP4 as substrate at 10 uM preincubated for 10 mins before addition of IP4 measured after 10 mins.

Calls of active or inactive are those of the source. No cut-off for these calls is given here.

In the case of `CC[C@H](C)[C@@H]1NC(=O)[C@@H](C)NC(=O)[C@H](C(C)C)NC(=O)C[C@@H](/C=C/c2ccccc2)OC(=O)[C@H](C(C)C)NC1=O`, the result was Active.

Turning to `CC[C@H](C)[C@@H]1NC(=O)[C@@H](C)NC(=O)[C@H](C(C)C)NC(=O)C[C@H](/C=C/c2ccccc2)OC(=O)[C@H](C(C)C)NC1=O`, the outcome was inactive.

Consider `Cc1cc(O)cc2c1[C@]1(C)CC[C@H]3C(C)(C)CCC[C@]3(C)[C@H]1C2`, for which the outcome was Active.
